Structures are written as SMILES. *1 amine or outer side, *2 acyl side, *3 side chain or, on linkers, in order; H or OH if unused. Where a SMILES comes first, the peptide text is derived from it. [ ]: non-standard residue; d: D form. The star is where a group is joined. Piperazinyl(4-(2-MeOPh)) = COc1ccccc1N1CCN(*)CC1; Piperazinyl(4-Ph) = c1ccc(N2CCN(*)CC2)cc1; X3 = COc1ccc(C)cc1N1CCN(*)CC1; X2 = COc1cccc(N2CCN(*)CC2)c1; dNle = CCCC[C@@H](N)C(=O)O; X4 = Fc1ccccc1N1CCN(*)CC1; Nle = CCCC[C@H](N)C(=O)O; CO = O=C([*:1])[*:2]; X1 = C1CCCN(*)CC1; Moc = COC(=O)*; For = O=C*

Experiment [1] concerns the target T1, human endothelin receptor ETA (Homo sapiens, UniProt P25101).
T1 construct: expressed in transfected cells; host or cells: CHO cells (membrane fraction)
T1 sequence (P25101 21-427): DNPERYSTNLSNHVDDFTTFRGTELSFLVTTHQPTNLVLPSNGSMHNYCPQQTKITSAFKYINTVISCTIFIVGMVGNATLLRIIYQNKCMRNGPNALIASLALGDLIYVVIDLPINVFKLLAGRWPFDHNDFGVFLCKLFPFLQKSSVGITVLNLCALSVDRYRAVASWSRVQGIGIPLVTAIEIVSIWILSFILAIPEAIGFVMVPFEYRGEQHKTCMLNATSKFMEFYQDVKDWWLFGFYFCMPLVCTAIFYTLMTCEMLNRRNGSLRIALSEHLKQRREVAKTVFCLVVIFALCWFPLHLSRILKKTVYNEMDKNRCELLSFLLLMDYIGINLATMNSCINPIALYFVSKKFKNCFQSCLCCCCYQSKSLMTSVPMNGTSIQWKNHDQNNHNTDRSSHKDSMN
As to the kind of experiment: Radioiodinated endothelin-1 binding to membrane fraction of CHO cells expressing human endothelin receptor ETA. As to conditions: radioactive-iodine-labeled endothelin-1, 25° C., one hour. How it is done: (§1) The membrane fraction of CHO cells on which human endothelin receptor (ETA or ETB) was expressed was diluted to 0.15 mg/ml with an assaying buffer and dispensed to assaying tubes at 100 μl per tube. To this membrane fraction suspension were added 2 μl of a solution of endothelin-1 labeled with radioactive iodine (5 nM) and 3 μl of a 50% dimethyl sulfoxide of the test compound, followed by incubation at 25° C. for one hour. The membrane fraction suspension was diluted with 900 μl of an ice-cooled assaying buffer and centrifuged at 12,000×G for 10 minutes to separate supernatant and precipitate. The precipitate contained cell membranes and endothelin receptors embedded therein. The receptor-bound endothelin, labeled with radioactive iodine, was also recovered in the precipitate. The radioactive iodine in this precipitate was counted, using a gamma ray counter, to determine the amount of radioactive-iodine-labeled endothelin-1 bound to the endothelin receptors. The results of the quantitative determination were shown in the respective IC50 (nm) values in the following Table 2.

Experiment [2] addresses T2, human endothelin receptor ETB (Homo sapiens, UniProt P24530).
T2 construct: expressed in transfected cells; host or cells: CHO cells (membrane fraction)
T2 sequence (P24530 27-442): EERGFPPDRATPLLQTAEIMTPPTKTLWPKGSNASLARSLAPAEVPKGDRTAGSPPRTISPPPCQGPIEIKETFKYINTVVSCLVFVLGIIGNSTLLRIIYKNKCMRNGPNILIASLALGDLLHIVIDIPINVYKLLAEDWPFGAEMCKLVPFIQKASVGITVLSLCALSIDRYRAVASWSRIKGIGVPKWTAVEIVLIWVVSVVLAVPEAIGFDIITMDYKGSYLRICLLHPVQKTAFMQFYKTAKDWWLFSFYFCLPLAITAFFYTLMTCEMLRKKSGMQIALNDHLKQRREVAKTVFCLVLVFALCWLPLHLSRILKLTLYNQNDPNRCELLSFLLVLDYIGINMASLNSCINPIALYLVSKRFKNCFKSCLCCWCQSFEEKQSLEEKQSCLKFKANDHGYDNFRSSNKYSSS
Kind of experiment: Radioiodinated endothelin-1 binding to membrane fraction of CHO cells expressing human endothelin receptor ETB. Particulars: radioactive-iodine-labeled endothelin-1, 25° C., one hour. Here is the method:
as §1

As usually defined, the IC50 is the midpoint of a concentration-inhibition curve. Turning to `CCCC[C@@H](NC(=O)[C@@H](Cc1cn(C=O)c2ccccc12)NC(=O)[C@H](CC(C)C)NC(=O)N1CCCCCC1)C(=O)N[C@H](CC(=O)N1CCN(c2ccccc2)CC1)C(=O)O` [W. Ex. 1, Hexamethyleniminocarbonyl-Leu-D-Trp(CHO)-D-Nle-D-Asp(Php)] ({X1-CO}-L[dW](For)[dNle][dD](Piperazinyl(4-Ph))-OH), the values for the IC50 in experiment [1] and in experiment [2] were 1.8 nM and 130 nM, respectively.

For `CCCC[C@@H](NC(=O)[C@@H](Cc1cn(C(=O)OC)c2ccccc12)NC(=O)[C@H](CC(C)C)NC(=O)N1CCCCCC1)C(=O)N[C@H](CC(=O)N1CCN(c2ccccc2)CC1)C(=O)O` [W. Ex. 2, Hexamethyleniminocarbonyl-Leu-D-Trp(COOMe)-D-Nle-D-Asp(Php)] ({X1-CO}-L[dW](Moc)[dNle][dD](Piperazinyl(4-Ph))-OH), the concentration for half-maximal inhibition (IC50) in experiment [1] is 11 nM; in experiment [2], 18 nM.

Consider `CCCC[C@@H](NC(=O)[C@@H](Cc1cn(C(=O)OC)c2ccccc12)NC(=O)[C@H](CC(C)C)NC(=O)N1CCCCCC1)C(=O)N[C@@H](CC(=O)N1CCN(c2ccccc2)CC1)C(=O)O` [W. Ex. 3, Hexamethyleniminocarbonyl-Leu-D-Trp(COOMe)-D-Nle-Asp (Php)] ({X1-CO}-L[dW](Moc)[dNle]D(Piperazinyl(4-Ph))-OH), for which the IC50 is 45 nM in experiment [1] and 34 nM in experiment [2].

Consider `CCCC[C@@H](NC(=O)[C@@H](Cc1cn(C(=O)OC)c2ccccc12)NC(=O)[C@H](CC(C)C)NC(=O)N1CCCCCC1)C(=O)N[C@H](CCC(=O)O)C(=O)N1CCN(c2ccccc2)CC1` [W. Ex. 4, Hexamethyleniminocarbonyl-Leu-D-Trp(COOMe)-D-Nle-D-Glu-Php] ({X1-CO}-L[dW](Moc)[dNle][dE]-{Piperazinyl(4-Ph)}), for which the IC50 in experiment [1] and in experiment [2] was 23 nM throughout.

Turning to `CCCC[C@@H](NC(=O)[C@@H](Cc1cn(C(=O)OC)c2ccccc12)NC(=O)[C@H](CC(C)C)NC(=O)N1CCCCCC1)C(=O)N[C@H](CC(=O)N1CCN(c2ccccc2OC)CC1)C(=O)O` [W. Ex. 5, Hexamethyleniminocarbonyl-Leu-D-Trp(COOMe)-D-Nle-D-Asp (2MeOPhp)] ({X1-CO}-L[dW](Moc)[dNle][dD](Piperazinyl(4-(2-MeOPh)))-OH), the IC50 in experiment [1] came out at 7.1 nM; in experiment [2], 7.9 nM.

For the molecule `CCCC[C@@H](NC(=O)[C@@H](Cc1cn(C(=O)OC)c2ccccc12)NC(=O)[C@H](CC(C)C)NC(=O)N1CCCCCC1)C(=O)N[C@H](CC(=O)N1CCN(c2cccc(OC)c2)CC1)C(=O)O` [W. Ex. 6, Hexamethyleniminocarbonyl-Leu-D-Trp(COOMe)-D-Nle-D-Asp (3MeOPhp)] ({X1-CO}-L[dW](Moc)[dNle][dD](X2)-OH), the 50% inhibitory concentration (IC50) in experiment [1] was 28 nM; in experiment [2], 29 nM.

`CCCC[C@@H](NC(=O)[C@@H](Cc1cn(C(=O)OC)c2ccccc12)NC(=O)[C@H](CC(C)C)NC(=O)N1CCCCCC1)C(=O)N[C@H](CC(=O)N1CCN(c2cc(C)ccc2OC)CC1)C(=O)O` [W. Ex. 7, Hexamethyleniminocarbonyl-Leu-D-Trp(COOMe)-D-Nle-D-Asp(2MeO-5MePhp)] ({X1-CO}-L[dW](Moc)[dNle][dD](X3)-OH): the IC50 amounted to 49 nM in experiment [1] and 110 nM in experiment [2].

`CCCC[C@@H](NC(=O)[C@@H](Cc1cn(C(=O)OC)c2ccccc12)NC(=O)[C@H](CC(C)C)NC(=O)N1CCCCCC1)C(=O)N[C@H](CC(=O)N1CCN(c2ccccc2F)CC1)C(=O)O` [W. Ex. 8, Hexamethyleniminocarbonyl-Leu-D-Trp(COOMe)-D-Nle-D-Asp (2FPhp)] ({X1-CO}-L[dW](Moc)[dNle][dD](X4)-OH): the IC50 turned out to be 18 nM in experiment [1] and 29 nM in experiment [2].

With `CCCC[C@@H](NC(=O)[C@@H](Cc1cn(C(=O)OC)c2ccccc12)NC(=O)[C@@H](NC(=O)N1CCCCCC1)[C@@H](C)CC)C(=O)N[C@H](CC(=O)N1CCN(c2ccccc2)CC1)C(=O)O` [W. Ex. 9, Hexamethyleniminocarbonyl-Ile-D-Trp(COOMe)-D-Nle-D-Asp(Php)] ({X1-CO}-I[dW](Moc)[dNle][dD](Piperazinyl(4-Ph))-OH), the IC50 in experiment [1] was found to be 21 nM; in experiment [2], 15 nM.

In the case of `CCCC[C@H](NC(=O)N1CCCCCC1)C(=O)N[C@H](Cc1cn(C(=O)OC)c2ccccc12)C(=O)N[C@H](CCCC)C(=O)N[C@H](CC(=O)N1CCN(c2ccccc2)CC1)C(=O)O` [W. Ex. 10, Hexamethyleniminocarbonyl-Nle-D-Trp(COOMe)-D-Nle-D-Asp(Php)] ({X1-CO}-[Nle][dW](Moc)[dNle][dD](Piperazinyl(4-Ph))-OH), the IC50 in experiment [1] was found to be 34 nM; in experiment [2] it was 75 nM.
